Laboratory results: ChEMBL document CHEMBL4007488, “Amphiphilic Indole Derivatives as Antimycobacterial Agents: Structure-Activity Relationships and Membrane Targeting Properties” (J Med Chem, 2017)
Converted amounts (≈) assume the structure as drawn. The source made the active and inactive calls. The calls are words filed in the database; no cut-off is given here.

Legend:
[1] = test system: Mycobacterium tuberculosis; experiment: Antimycobacterial activity against Mycobacterium tuberculosis H37Rv ATCC 27294 assessed as growth inhibition at 10 uM after 5 days relative to control; type: functional; conditions: H37Rv ATCC 27294, 120 h, read-out: GI
[2] = test system: Mycolicibacterium smegmatis; experiment: Antimycobacterial activity against Mycobacterium smegmatis MC2 155 ATCC 700084 assessed as growth inhibition at 10 uM after 5 days relative to control; type: functional; conditions: MC2 155 ATCC 700084, 120 h, read-out: GI
Lipid bilayer [3] = experiment: Binding affinity to DMPG vesicles assessed as melting transition temperature by differential scanning calorimetric analysis (reference value: 21.09 to 23.32 degC)
Lipid bilayer [4] = experiment: Binding affinity to DMPG vesicles assessed as change in enthalpy by differential scanning calorimetric analysis
Lipid bilayer [5] = experiment: Binding affinity to DMPG vesicles assessed as increase in width at 1/2 height of endotherm of compound containing vesicles by differential scanning calorimetric analysis
[6] = Aqueous solubility of compound at pH 7.4 at 25 degC after 24 hrs; type: physicochemical; conditions: buffer
[7] = Selectivity index, ratio of IC50 for African green monkey Vero E6 cells to MIC50 for Mycobacterium tuberculosis H37Rv ATCC 27294; type: toxicity, Vero C1008; conditions: read-out: Selectivity Index
[8] = Selectivity index, ratio of IC50 for human HepG2 cells to MIC50 for Mycobacterium tuberculosis H37Rv ATCC 27294; type: toxicity; conditions: read-out: Selectivity Index
[9] = Half life in rat liver microsomes preincubated for 5 mins followed by NADPH addition measured up to 45 mins by LC-MS analysis; type: ADME, microsome
HepG2 = experiment: Cytotoxicity against human HepG2 cells assessed as reduction in cell viability after 48 hrs by MTT assay; type: cell-based; conditions: HepG2, 48 h
Vero C1008 = experiment: Cytotoxicity against African green monkey Vero E6 cells assessed as reduction in cell viability after 48 hrs by 96 aqueous one-based assay; conditions: Chlorocebus sabaeus, Vero C1008, 48 h
[10] = test system: Mycobacterium tuberculosis; experiment: Antimycobacterial activity against Mycobacterium tuberculosis H37Rv ATCC 27294 after 5 days by broth dilution method; type: functional; conditions: H37Rv ATCC 27294, 120 h

Structure (SMILES)	inhibition of growth at 10 µM [1] [%]	inhibition of growth at 10 µM [2] [%]	Tm (Lipid bilayer [3]) [°C]	deltaH (Lipid bilayer [4]) [kcal/mol]	other results
CCCCn1cc(CN2CCCCCC2)c2c(F)cccc21	99	99	19	-3.3	
CCCCCCCCn1cc(C(=O)N2CCCCCC2)c2cc(F)ccc21	99	99	18.9	-2.52	Activity (Lipid bilayer [5]): inactive
CCCCCCn1cc(CN2CCCCCC2)c2c(F)cccc21	99	99	19	-1.52	
CC(C)=CCC/C(C)=C/Cn1cc(CN2CCCCC2)c2cc(F)ccc21	99	99			solubility at 24 h [6]: 25 µM (≈ 9.21 µg/mL); selectivity ratio [7]: 6
CCCCCCCCn1ccc2c(F)cccc21	99	99	19.9	-3.34	Activity (Lipid bilayer [5]): inactive
CCn1cc(CN2CCCCCC2)c2c(F)cccc21	99	99	19.8	-3.44	
CCCCCCCCn1cc(CNC23CC4CC(CC(C4)C2)C3)c2c(F)cccc21	99	99			selectivity ratio [8]: 6.5; solubility at 24 h [6]: 10.2 µM (≈ 4.19 µg/mL); half-life [9]: 15.9 min; selectivity ratio [7]: 8; IC50 (HepG2): 13 µM; IC50 (Vero C1008): 16 µM; MIC50 [10]: 2 µM (≈ 0.821 µg/mL); MIC90 [10]: 3 µM (≈ 1.23 µg/mL)
CCCCCCCCCCCCn1cc(CN2CCCCCC2)c2c(F)cccc21	99	99	18.8	-0.44	Activity (Lipid bilayer [5]): inactive
CCCCCCCCn1cc(CN2CCC3(CC2)OCCO3)c2c(F)cccc21	99	99	19.4	-1.7	selectivity ratio [8]: 4.1; selectivity ratio [7]: 7.3; IC50 (HepG2): 21.8 µM; IC50 (Vero C1008): 38.9 µM; MIC50 [10]: 5.3 µM (≈ 2.13 µg/mL); MIC90 [10]: 10.6 µM (≈ 4.27 µg/mL)
CC(C)=CCC/C(C)=C/Cn1cc(CN2CCCCC2)c2ccccc21	99	99			
CCCCCCCCn1cc(CNC(C)C)c2cc(F)ccc21	99	99			
CCCCCCCCCCn1cc(CN2CCCCCC2)c2c(F)cccc21	99	99	18.6	-0.963	Activity (Lipid bilayer [5]): inactive
CCCCCCCCn1cc(CN2CCCCCC2)c2cc(OC)ccc21	99	99			
CCCCCCCCn1cc(CNC23CC4CC(CC(C4)C2)C3)c2cc(F)ccc21	99	99			
CCCCCCCCn1cc(CN2CCC3(CC2)OCCO3)c2ccc(F)cc21	99	99	18.5	-2.15	selectivity ratio [8]: 8.5; selectivity ratio [7]: 15.8; IC50 (HepG2): 25.5 µM; IC50 (Vero C1008): 47.5 µM; MIC50 [10]: 3 µM (≈ 1.21 µg/mL); MIC90 [10]: 6 µM (≈ 2.42 µg/mL)
CCCCCCCCn1cc(CN2CCCCCC2)c2cccc(F)c21	99	99			
CCCCCCCCn1cc(CN2CCOCC2)c2cc(F)ccc21	99	99			
Fc1ccc2[nH]cc(CN3CCCCC3)c2c1	99	99			
CC(C)=CCC/C(C)=C/Cn1cc(CNC2CCCC2)c2cc(F)ccc21	99	99			
CCN1CCN(Cc2cn(C/C=C(\C)CCC=C(C)C)c3ccc(F)cc23)CC1	99	99			
CCCCCCCCn1cc(CNCCC)c2cc(F)ccc21	99	99			
CCCCCCCCn1cc(CN2CCC(C)CC2)c2cccc(OC)c21	99	99			
